Reference: paper PMC10683025, “Discovery of a Hydroxylamine-Based Brain-Penetrant EGFR Inhibitor for Metastatic Non-Small-Cell Lung Cancer” (Journal of Medicinal Chemistry, 2023)
Like-named read-outs stand apart in the source and are kept apart here.

Key:
TA1535 = test system: TA1535; set-up: species or system Salmonella
TA100 = test system: TA100; set-up: species or system Salmonella;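 on Count (# of wells): Revertant-positive wells among 48 replicate wells per concentration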
Method: (§1) Compounds were assessed for mutagenicity at the Eurofins Panlabs in 384-well plates using four Salmonella strains: TA98, to probe for frameshift mutation (with quercetin as control), TA100 and TA1535, to probe for base pair insertions/deletions (with streptozotocin as control), and TA1537, to probe for frameshift mutations (with aminacridine as control) as previously described.[78] […] A concurrent bacterial cytotoxicity assay was run at 0.6, 1.2, 2.5, 5, 10, 25, 50, and 100 μM to rule out false negatives. Bacterial cytotoxicity was expressed as percent of control growth (OD650). Compounds with growth of less than 60% control were flagged and considered bacterial cytotoxic. […] Significances of the positive counts between the treatment and control were determined using a one-tailed Fisher’s exact test.

TA98 = test system: TA98; set-up: species or system Salmonella;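 on Count (# of wells): Revertant-positive wells among 48 replicate wells per concentration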
Method: as §1

TA1537 = test system: TA1537; set-up: species or system Salmonella;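 on Count (# of wells): Revertant-positive wells among 48 replicate wells per concentration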
Method: as §1

P-gp and BCRP = test system: P-gp and BCRP; set-up: method as in ref 17−20; conditions: ref 17−20; cited from earlier work
MDCKII-MDR1 permeability = type: in vitro ADME, canine; conditions: dog, MDCK-MDR1, MDCKII-MDR1
Method: (§4) A 96-well HTS Transwell plate (Corning) was used for Caco-2 and MDCKII-MDR1 cell seeding. […] Plates were incubated at 37 °C for 2 h, and samples (50 μL) were taken at the beginning and end of the incubation in both the donor and acceptor wells with the assay run in duplicate (n = 2). Samples were analyzed by LC-MS/MS.
(§5) The efflux ratio was determined by using the following equation: [drawing 4] where Papp (B–A) indicates the apparent permeability in the basolateral to apical direction and Papp (A–B) indicates the apparent permeability in the apical to basolateral direction.

MDR1 = experiment: MDCKII-MDR1 permeability; type: in vitro ADME, canine; conditions: dog, MDCK-MDR1
Method: as §4, §5

Caco-2 permeability = type: in vitro ADME; conditions: human; for efflux ratio at 2 h, 5 μM / Papp A→B at 2 h, 5 μM / Papp B→A at 2 h, 5 μM: Caco-2; for recovery at 2 h, 5 μM: Caco-2, Caco-2
Method: as §4, §5

Plasma stability [1] = type: in vitro ADME, Sprague-Dawley rat; conditions: rat plasma
Method: (§2) Assessment of compounds to determine stability in incubations containing plasma of human (Pharmaron) and Sprague-Dawley rat (IPHASE) was performed by Pharmaron, Inc. using the compound […] approach. Compounds were assessed in duplicate (n = 2) and incubated in plasma at 5 μM and samples (50 μL) were taken at 0, 15, 30, 60, and 120 min time points for analysis by LC-MS/MS. Peak area ratios were determined from the extracted ion chromatogram and the percent compound remaining at each time point was calculated by the following equation: [drawing 2] where peak area ratiot min is the peak area ratio of control and test compound at t min and peak area ratio0 min is the peak area ratio of control and test compound at zero time point.

Plasma stability [2] = type: in vitro ADME, human; conditions: human plasma
Method: as §2

[3] = Brain tissue binding by equilibrium dialysis; type: in vitro ADME, mouse; conditions: CD-1, mouse
Method: (§3) Plasma protein binding and brain tissue binding were determined by Pharmaron, Inc. using the equilibrium dialysis method. […] Following incubation, the samples were analyzed by LC-MS/MS and the concentrations of the compounds were determined in the buffer and plasma solution chambers.

[4] = Brain tissue binding by equilibrium dialysis; type: in vitro ADME; conditions: rat
Method: as §3

SMILES: CN(N=O)C(=O)N[C@H]1C(O)O[C@H](CO)[C@@H](O)[C@@H]1O (mixture of isomers) [Streptozotocin, reference compound]
- Count (# of wells) (TA1535; TA1535+S9, 2.5E-06 M): 48
- Count (# of wells) (TA1535; TA1535-S9, 2.5E-06 M): 2
- Positive Significance (- to +++) (TA1535; TA1535-S9, 2.5E-06 M): -
- Count (# of wells) (TA100; TA100+S9, 2.5E-06 M): 39
- Count (# of wells) (TA100; TA100-S9, 2.5E-06 M): 42
- Count (# of wells) (TA98; TA98+S9, 2.5E-06 M): 2
- Positive Significance (- to +++) (TA98; TA98+S9, 2.5E-06 M): -
- Count (# of wells) (TA98; TA98-S9, 2.5E-06 M): 1
- Positive Significance (- to +++) (TA98; TA98-S9, 2.5E-06 M): -
- Count (# of wells) (TA1537; TA1537+S9, 2.5E-06 M): 7
- Positive Significance (- to +++) (TA1537; TA1537+S9, 2.5E-06 M): -
- Count (# of wells) (TA1537; TA1537-S9, 2.5E-06 M): 2
- Positive Significance (- to +++) (TA1537; TA1537-S9, 2.5E-06 M): -

SMILES: Nc1ccc2cc3ccccc3cc2c1 [2-Aminoanthracene, reference compound]
- Count (# of wells) (TA1535; TA1535+S9, 5.0E-06 M): 15
- Count (# of wells) (TA100; TA100+S9, 1.0E-06 M): 21
- Count (# of wells) (TA100; TA100-S9, 5.0E-06 M): 4
- Positive Significance (- to +++) (TA100; TA100-S9, 5.0E-06 M): -
- Count (# of wells) (TA98; TA98+S9, 2.0E-06 M): 47
- Count (# of wells) (TA98; TA98-S9, 5.0E-06 M): 1
- Positive Significance (- to +++) (TA98; TA98-S9, 5.0E-06 M): -
- Count (# of wells) (TA1537; TA1537+S9, 1.0E-05 M): 14
- Positive Significance (- to +++) (TA1537; TA1537+S9, 1.0E-05 M): ++ (strong positive, if P < 0.01 (denoted as “++”))
- Count (# of wells) (TA1537; TA1537-S9, 5.0E-06 M): 1
- Positive Significance (- to +++) (TA1537; TA1537-S9, 5.0E-06 M): -

SMILES: Nc1c2ccccc2nc2ccccc12 [9-Aminoacridine, reference compound]
- Count (# of wells) (TA1535; TA1535+S9, 1.0E-05 M): 0
- Positive Significance (- to +++) (TA1535; TA1535+S9, 1.0E-05 M): -
- Count (# of wells) (TA1535; TA1535-S9, 1.0E-05 M): 1
- Positive Significance (- to +++) (TA1535; TA1535-S9, 1.0E-05 M): -
- Count (# of wells) (TA100; TA100+S9, 1.0E-05 M): 3
- Positive Significance (- to +++) (TA100; TA100+S9, 1.0E-05 M): -
- Count (# of wells) (TA100; TA100-S9, 1.0E-05 M): 2
- Positive Significance (- to +++) (TA100; TA100-S9, 1.0E-05 M): -
- Count (# of wells) (TA98; TA98+S9, 1.0E-05 M): 1
- Positive Significance (- to +++) (TA98; TA98+S9, 1.0E-05 M): -
- Count (# of wells) (TA98; TA98-S9, 1.0E-05 M): 0
- Positive Significance (- to +++) (TA98; TA98-S9, 1.0E-05 M): -
- Count (# of wells) (TA1537; TA1537+S9, 1.0E-05 M): 17
- Count (# of wells) (TA1537; TA1537-S9, 1.0E-05 M): 11
- Positive Significance (- to +++) (TA1537; TA1537-S9, 1.0E-05 M): ++ (strong positive, if P < 0.01 (denoted as “++”))

SMILES: CN(C)C/C=C/C(=O)Nc1cc2c(Nc3ccc(F)c(Cl)c3)ncnc2cc1O[C@H]1CCOC1 [Afatinib]
- efflux status against common efflux transporters (P-gp and BCRP): P-gp and BCRP Substrate

SMILES: COc1cc2ncnc(Nc3ccc(F)c(Cl)c3)c2cc1NC(=O)/C=C/CN1CCCCC1 [Dacomitinib]
- efflux status against common efflux transporters (P-gp and BCRP): P-gp and BCRP Substrate

SMILES: C[C@H]1O[C@@H](O[C@H]2[C@@H](O)C[C@H](O[C@H]3[C@@H](O)C[C@H](O[C@H]4CC[C@@]5(C)[C@H](CC[C@@H]6[C@@H]5C[C@@H](O)[C@]5(C)[C@@H](C7=CC(=O)OC7)CC[C@]65O)C4)O[C@@H]3C)O[C@@H]2C)C[C@H](O)[C@@H]1O [Digoxin, reference compound]
- recovery at 2 h, 1 μM (MDCKII-MDR1 permeability; read-out: Recovery% (AP-BL)): 98.8%
- recovery at 2 h, 1 μM (MDCKII-MDR1 permeability; read-out: Recovery% (BL-AP)): 100%
- efflux ratio at 2 h, 1 μM (MDR1): 40.6
- Papp A→B at 2 h, 1 μM (MDR1): 0.25 ×10⁻⁶ cm/s
- Papp B→A at 2 h, 1 μM (MDR1): 10.2 ×10⁻⁶ cm/s
- efflux ratio at 2 h, 5 μM (Caco-2 permeability): 50.1
- recovery at 2 h, 5 μM (Caco-2 permeability; read-out: Recovery% (AP-BL)): 108%
- recovery at 2 h, 5 μM (Caco-2 permeability; read-out: Recovery% (BL-AP)): 96.2%
- Papp A→B at 2 h, 5 μM (Caco-2 permeability): 0.27 ×10⁻⁶ cm/s
- Papp B→A at 2 h, 5 μM (Caco-2 permeability): 13.4 ×10⁻⁶ cm/s

SMILES: C#Cc1cccc(Nc2ncnc3cc(OCCOC)c(OCCOC)cc23)c1 [Erlotinib]
- efflux status against common efflux transporters (P-gp and BCRP): P-gp and BCRP Substrate

SMILES: COCCc1ccc(OCC(O)CNC(C)C)cc1 (centres unmarked) [Metoprolol, reference compound]
- recovery at 2 h, 1 μM (MDCKII-MDR1 permeability; read-out: Recovery% (AP-BL)): 105%
- recovery at 2 h, 1 μM (MDCKII-MDR1 permeability; read-out: Recovery% (BL-AP)): 98.4%
- efflux ratio at 2 h, 1 μM (MDR1): 0.81
- Papp A→B at 2 h, 1 μM (MDR1): 25.9 ×10⁻⁶ cm/s
- Papp B→A at 2 h, 1 μM (MDR1): 20.9 ×10⁻⁶ cm/s
- efflux ratio at 2 h, 5 μM (Caco-2 permeability): 0.89
- recovery at 2 h, 5 μM (Caco-2 permeability; read-out: Recovery% (AP-BL)): 97.4%
- recovery at 2 h, 5 μM (Caco-2 permeability; read-out: Recovery% (BL-AP)): 98.4%
- Papp A→B at 2 h, 5 μM (Caco-2 permeability): 24.9 ×10⁻⁶ cm/s
- Papp B→A at 2 h, 5 μM (Caco-2 permeability): 22.2 ×10⁻⁶ cm/s

SMILES: CC[C@H](C)C(=O)O[C@H]1C[C@@H](C)C=C2C=C[C@H](C)[C@H](CC[C@@H]3C[C@@H](O)CC(=O)O3)[C@H]21 [Mevinolin, reference compound]
- half-life at 5 μM (Plasma stability [1]; Sprague-Dawley, ∞ = no degradation): 2.49 min
- Remaining Percentages (Plasma stability [1]; 15 min): 1.54%
- Remaining Percentages (Plasma stability [1]; 30 min): 0.42%
- Remaining Percentages (Plasma stability [1]; 60 min): 0.30%
- Remaining Percentages (Plasma stability [1]; 120 min): 0.27%

SMILES: C=CC(=O)Nc1cc(Nc2nccc(-c3cn(C)c4ccccc34)n2)c(OC)cc1N(C)CCN(C)C [Osimertinib]
- efflux status against common efflux transporters (P-gp and BCRP): Moderate P-gp and BCRP Substrate

SMILES: CC(C)[N+](C)(CCOC(=O)C1c2ccccc2Oc2ccccc21)C(C)C [Propantheline, reference compound]
- Remaining Percentages (Plasma stability [2]; 15 min): 69.10%
- Remaining Percentages (Plasma stability [2]; 30 min): 48.79%
- Remaining Percentages (Plasma stability [2]; 60 min): 22.07%
- Remaining Percentages (Plasma stability [2]; 120 min): 4.85%
- half-life at 5 μM (Plasma stability [2]; ∞ = no degradation): 27.6 min

SMILES: O=c1c(O)c(-c2ccc(O)c(O)c2)oc2cc(O)cc(O)c12 [Quercetin, reference compound]
- Count (# of wells) (TA1535; TA1535+S9, 1.0E-05 M): 4
- Positive Significance (- to +++) (TA1535; TA1535+S9, 1.0E-05 M): -
- Count (# of wells) (TA100; TA100+S9, 1.0E-05 M): 5
- Positive Significance (- to +++) (TA100; TA100+S9, 1.0E-05 M): -
- Count (# of wells) (TA100; TA100-S9, 1.0E-05 M): 1
- Count (# of wells) (TA98; TA98+S9, 1.0E-05 M): 30
- Count (# of wells) (TA98; TA98-S9, 1.0E-05 M): 12
- Count (# of wells) (TA1537; TA1537+S9, 3.0E-05 M): 6
- Positive Significance (- to +++) (TA1537; TA1537+S9, 3.0E-05 M): -
- Count (# of wells) (TA1537; TA1537-S9, 1.0E-05 M): 1
- Positive Significance (- to +++) (TA1537; TA1537-S9, 1.0E-05 M): -

SMILES: CCCc1nc2c(C)cc(-c3nc4ccccc4n3C)cc2n1Cc1ccc(-c2ccccc2C(=O)O)cc1 [Telmisartan, reference compound]
- fraction unbound at 6 h, 5 μM ([3]; brain homogenate, read-out: fu,brain% / %Unboundbrain): 0.0143
- recovery at 6 h, 5 μM ([3]; mouse brain homogenate): 109%
- remaining at 6 h, 5 μM ([3]; mouse brain homogenate): 108%
- fraction unbound at 6 h, 5 μM ([3]; mouse brain homogenate, read-out: %Unboundbrain (converted)): 0.0143
- recovery at 6 h, 5 μM ([4]; Sprague-Dawley (SD), rat brain homogenate): 107%
- fraction unbound at 6 h, 5 μM ([4]; Sprague-Dawley, brain homogenate, read-out: fu,brain% / %Unboundbrain): 0.0146
- remaining at 6 h, 5 μM ([4]; Sprague-Dawley, rat brain homogenate): 100%
- fraction unbound at 6 h, 5 μM ([4]; Sprague-Dawley, rat brain homogenate, read-out: %Boundbrain (converted)): 0.0146
